In PMC8458281, “Computational modeling and experimental validation of the EPI-X4/CXCR4 complex allows rational design of small peptide antagonists” (Communications Biology, 2021):
Each block holds one molecule with its values, some of them ahead of it.

Assays:
CXCR4 D262A = test: 12G5 antibody competition, 293T cells transfected with CXCR4 D262A; assay type: binding, human; conditions: IC50 on CXCR4 D262A relative to wt
Experimental: (§1) Fig. 4 The interactions of EPI-X4 and the EPI-X4 derivatives WSC02 and JM#21 with point-mutated CXCR4 were assessed by an antibody competition assay. Amino acid substitutions were introduced in the sequence of CXCR4 by site-directed mutagenesis, cloned into an IRES-eGFP expression vector, and transfected into 293 T cells. Afterward, cells were incubated with serially diluted EPI-X4 (a, b), WSC02 (c, d), or JM#21 (e, f) in presence of a constant concentration of CXCR4 specific antibody (clone 12G5). After 2 h, bound antibody was analyzed by flow cytometry. a, c, e) Representative dose-dependent replacement of 12G5 antibody by peptides. b, d, f) IC50 values were calculated by nonlinear regression. Shown are data derived from at least three individual experiments ± SEM. IC50 values were set to 1000 µM (EPI-X4 and WSC02) or 100 µM (JM#21) if the value exceeds the maximally used concentration. *p ≤ 0.05, ***p ≤ 0.001 (one-way ANOVA for comparison with wt). For IC50 values see Table 1. For all binding curves see also Fig. S8.
(§2) Mutated CXCR4 constructs were transfected into 293 T cells that have a very low endogenous expression level of wild-type CXCR4. Transfected cells were then analyzed for CXCR4 surface expression (Fig. S5a) and EPI-X4 binding using a flow cytometry-based antibody competition assay (Fig. S5b, c)[33]. […]

CXCR4 D97E = test: 12G5 antibody competition, 293T cells transfected with CXCR4 D97E; assay type: binding, human; conditions: IC50 on CXCR4 D97E relative to wt
Experimental: as §1, §2

CXCR4 L41A = test: 12G5 antibody competition, 293T cells transfected with CXCR4 L41A; assay type: binding, human; conditions: IC50 on CXCR4 L41A relative to wt
Experimental: as §1, §2

[1] = biological target: T1, C-X-C motif chemokine receptor 4 (CXCR4) on SupT1 cells (human (endogenous in SupT1), UniProt P61073 1-352); test: flow cytometry on cells; 12G5 antibody competition on SupT1 cells; peptides in PBS with APC-conjugated 12G5 at a concentration close to its EC50, 4 °C, 2 h; MFI normalized to PBS control; IC50 by nonlinear regression; conditions: one partner purified
T1 construct: CXCR4 as expressed on SupT1 cells; source: endogenous, on SupT1 cells
T1 sequence (P61073 whole entry): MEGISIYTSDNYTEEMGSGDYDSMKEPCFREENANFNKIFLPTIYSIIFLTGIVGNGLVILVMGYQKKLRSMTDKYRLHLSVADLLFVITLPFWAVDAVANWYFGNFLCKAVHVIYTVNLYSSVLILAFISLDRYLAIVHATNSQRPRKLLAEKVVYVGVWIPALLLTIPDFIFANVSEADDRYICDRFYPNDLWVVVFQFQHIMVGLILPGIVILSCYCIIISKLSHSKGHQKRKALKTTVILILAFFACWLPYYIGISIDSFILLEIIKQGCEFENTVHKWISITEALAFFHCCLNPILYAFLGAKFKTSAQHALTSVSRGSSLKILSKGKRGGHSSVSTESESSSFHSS

Molecule: IVRWSKKVPCVS [WSC02, first-generation C-terminally truncated 12-mer derivative of EPI-X4 with four substitutions]
Fold change (CXCR4 D262A): 0.4
Fold change (CXCR4 D97E): 8
Fold change (CXCR4 L41A): 1.5

IC50 [1]: 2390 nM
B1: EPI-X4 (Alb408-423) (peptide)
peptide: LVRYTKKVPQVSTPTL
notes: source: synthetic peptide (Fmoc solid-phase synthesis, HPLC-purified)
